Laboratory results taken from patent publication US9572807B2, “Protocols for treatment of major depressive disorder (MDD)” (NEURALSTEM, INC., priority 2014, dated 2017).

Legend:
Assay type in all cases: in vivo, human
[1] = test system: patients with symptomatic MDD; experiment: Cognitive and Physical Functioning Questionnaire (CPFQ), Phase 1B study; details: for Cohen's d value, CPFQ (ANCOVA): all test groups (n=18) vs placebo (n=6)
Method: (§1) A double-blind, placebo-controlled, multiple-ascending-dose study employing the compound of formula (1) was performed in patients with symptomatic MDD. Twenty-four subjects were recruited, with their diagnosis and illness severity confirmed through an independent, remote SAFER interview (Targum, S. D., et al., CNS Neurosci. Ther. (2008) 14:2-9) from the Massachusetts General Hospital (MGH) Clinical Trials Network and Institute (CTNI) raters. Each patient underwent a screening for eligibility (Day −37 to Day −6 or −3) and eligible patients were admitted into the unit on Day −5 to complete their wash-out and be reconfirmed for eligibility and for baseline assessments. The patients received daily dosing of formula (1) or placebo for 28 days starting on Day 1 and were followed for safety, pharmacokinetics (PK) and pharmacodynamics (PD) until discharge. At the conclusion of in-house dosing (Day 28), patients remained in the unit for up to 3 additional days, at the psychiatrist's discretion. On Day 35 (±3), Day 42 (±3), Day 49 (±3) and Day 70 (±3) outpatient follow-up visits took place. Patients returned to the unit for extensive follow-up on Day 56 (±3) and Day 84 (±3) (End-of-study).
(§2) The subjects were randomized into four groups of 6 patients each to receive 40 mg of formula (1) per dose administered orally in gelatin capsules once daily, twice daily or three times daily to provide 40 or 80 or 120 mg daily of formula (1) or placebo for 28 days. Each cohort included at least 3 female subjects. In this example, qEEG was used to characterize pharmacodynamic effects.
(§3) In this example, the results of the study of Example 1 were evaluated by the efficacy assessments that included the Montgomery-Asberg Depression Rating Scale (MADRS), the Clinician Global Impression-Improvement (CGI-I), the Symptoms of Depression Questionnaire (SDQ) and the Cognitive and Physical Functioning Questionnaire (CPFQ). […] These improvements persisted over time during the follow-up for MADRS, SDQ and CPFQ.
(§4) Baseline values were adjusted for initial differences and the results for the placebo group (n=6) and the tested groups (n=18) were collapsed. The sizes of the effects were estimated as Cohen's d group mean differences where d=0.20 indicates only a small difference, d=0.50 indicates a medium difference and d=0.80 indicates a large difference. Cohen's d values are described in Cohen, J. (1988) Statistical Power Analysis for the Behavioral Sciences (2nd ed.), Lawrence Erlbaum Associates. D values are used when the scale of a dependent variable is not inherently meaningful, the difference between means are considered in standardized units. That is, effect size is measured in terms of the number of standard deviations by which the means differ. Two commonly used measures are Hedges' g and Cohen's d. Both of these measures consist of the difference between means divided by the standard deviation. They differ only in that Hedges' g uses the version of the standard deviation formula in which division is by N−1, whereas Cohen's d uses the version in which division is by N.
(§5) Covariance is a measure of how much two variables change together and how strong the relationship is between them (Lenth, R. V., The American Statistician (2001) 55:187-193). Analysis of covariance (ANCOVA) is a general linear model which blends analysis of variance (ANOVA) and regression. ANCOVA evaluates whether population means of a dependent variable (DV) are equal across levels of a categorical independent variable (IV), while statistically controlling for the effects of other continuous variables that are not of primary interest, known as covariates (CV). Therefore, when performing ANCOVA, the DV means are adjusted to what they would be if all groups were equal on the CV. In the CGI-I assay, Day 7 was used as the baseline value; in the remaining assays, Day 0 was used as baseline.

[2] = test system: patients with symptomatic MDD; experiment: Clinician Global Impression-Improvement Scale (CGI-I), Phase 1B study; details: for Cohen's d value, CGI-I (ANCOVA): all test groups (n=18) vs placebo (n=6), Day 7 as baseline
Method: as §1, §2, §3, §4, §5

[3] = test system: patients with symptomatic MDD; experiment: qEEG pharmacodynamic measurement; details: pre vs 6 hours post-dose on Day 14 and Day 28; prominent in left posterior temporal and parietal regions; lower HFα with placebo
Method: as §1, with “At the conclusion of in-house dosing (Day 28), patients remained in the unit for up to 3 additional days, at the psychiatrist's discretion. On Day 35 (±3), Day 42 (±3), Day 49 (±3) and Day 70 (±3) outpatient follow-up visits took place. Patients returned to the unit for extensive follow-up on Day 56 (±3) and Day 84 (±3) (End-of-study).” left out
In addition to safety, pharmacokinetic and the behavioral ratings scales described in Example 2, qEEG measurements were obtained 6 hours post-dose on Days 14 and 28 for 20 minutes at rest. EEGs were recorded using 19-standard International 10/20 System scalp locations plus electromyography (EMG) and eye movement monitoring. Digital EEGs recorded using Cadwell Laboratories instrumentation, were reviewed to identify the presence of physiological and instrumentation prior to analyses. […]

[4] = Day 14, 1x = 40 mg/day oral (n=6)
[5] = Day 14, 2x = 80 mg/day oral (n=6)
[6] = Day 14, 3x = 120 mg/day oral (n=6)
[7] = Day 14, all three dose groups pooled (n=18)
[8] = Day 56 (follow-up after 28 days dosing), 1x = 40 mg/day oral
[9] = Day 56 (follow-up after 28 days dosing), 2x = 80 mg/day oral
[10] = Day 56 (follow-up after 28 days dosing), 3x = 120 mg/day oral
[11] = Day 56 (follow-up after 28 days dosing), all three dose groups pooled (n=18)
[12] = Day 84 (follow-up after 28 days dosing), 1x = 40 mg/day oral
[13] = Day 84 (follow-up after 28 days dosing), 2x = 80 mg/day oral
[14] = Day 84 (follow-up after 28 days dosing), 3x = 120 mg/day oral
[15] = Day 84 (follow-up after 28 days dosing), all three dose groups pooled

CC(C)CCNc1ncccc1C(=O)N1CCN(Cc2ccccc2)CC1 [formula (1)]
CPFQ value ([1]; 80 mg/day, FIG. 4, controls (n=2) 4.6): 2.6
Cohen's d value, CPFQ (ANCOVA) ([1]; 30 days): 0.94
CPFQ Means [1, 4]: 3.3095
CPFQ Means [1, 5]: 3.2143
CPFQ Means [1, 6]: 3
CPFQ Means [1, 7]: 3.1746
CPFQ Means ([1]; Day 28, 1x = 40 mg/day oral (n=6)): 2.7857
CPFQ Means ([1]; Day 28, 2x = 80 mg/day oral (n=6)): 2.6905
CPFQ Means ([1]; Day 28, 3x = 120 mg/day oral (n=6)): 2.6667
CPFQ Means ([1]; Day 28, all three dose groups pooled (n=18)): 2.7143
CPFQ Means [1, 8]: 2.9048
CPFQ Means [1, 9]: 2.3571
CPFQ Means [1, 10]: 2.5714
CPFQ Means [1, 11]: 2.6111
CPFQ Means [1, 12]: 2.8571
CPFQ Means [1, 13]: 2.4286
CPFQ Means [1, 14]: 2.3714
CPFQ Means [1, 15]: 2.563
Cohen's d value, CPFQ (ANCOVA) ([1]; Day 85): 1.20
CPFQ Means ([1]; Day −5 (baseline before dosing), 1x = 40 mg/day group): 4.0238
CPFQ Means ([1]; Day −5 (baseline before dosing), 2x = 80 mg/day group): 3.4762
CPFQ Means ([1]; Day −5 (baseline before dosing), 3x = 120 mg/day group): 3.7143
CPFQ Means ([1]; Day −5 (baseline before dosing), all three dose groups pooled (n=18)): 3.7381
Cohen's d value, CGI-I (ANCOVA) ([2]; 70 days): 1.13
CGI-I Means ([2]; Day 7, 1x = 40 mg/day oral (n=6)): 3.5
CGI-I Means ([2]; Day 7, 2x = 80 mg/day oral (n=6)): 3.8333
CGI-I Means ([2]; Day 7, 3x = 120 mg/day oral (n=6)): 3.6667
CGI-I Means ([2]; Day 7, all three dose groups pooled (n=18)): 3.6667
CGI-I Means [2, 4]: 3
CGI-I Means [2, 5]: 3.3333
CGI-I Means [2, 6]: 3.1667
CGI-I Means [2, 7]: 3.1667
CGI-I Means ([2]; Day 21, 1x = 40 mg/day oral (n=6)): 2.8333
CGI-I Means ([2]; Day 21, 2x = 80 mg/day oral (n=6)): 3.3333
CGI-I Means ([2]; Day 21, 3x = 120 mg/day oral (n=6)): 3.3333
CGI-I Means ([2]; Day 21, all three dose groups pooled (n=18)): 3.1667
CGI-I value ([2]; Day 28, 40 mg/day, FIG. 1, placebo subset (n=2) 3.5): approximately 2.5
CGI-I value ([2]; Day 28, 80 mg/day (40 mg two times daily), FIG. 1): 3
CGI-I value versus controls ([2]; Day 28, 120 mg/day, FIG. 1): no difference from controls
CGI-I Means ([2]; Day 29, 1x = 40 mg/day oral (n=6)): 2.5
CGI-I Means ([2]; Day 29, 2x = 80 mg/day oral (n=6)): 2.8333
CGI-I Means ([2]; Day 29, 3x = 120 mg/day oral (n=6)): 3.1667
CGI-I Means ([2]; Day 29, all three dose groups pooled (n=18)): 2.8333
Cohen's d value, CGI-I (ANCOVA) ([2]; Day 30): 0.57
CGI-I Means ([2]; Day 35 (follow-up after 28 days dosing), 1x = 40 mg/day oral): 3.8333
CGI-I Means ([2]; Day 35 (follow-up after 28 days dosing), 2x = 80 mg/day oral): 2.8333
CGI-I Means ([2]; Day 35 (follow-up after 28 days dosing), 3x = 120 mg/day oral): 3
CGI-I Means ([2]; Day 35 (follow-up after 28 days dosing), all three dose groups pooled (n=18)): 3.2222
CGI-I Means ([2]; Day 42 (follow-up after 28 days dosing), 1x = 40 mg/day oral): 3.8333
CGI-I Means ([2]; Day 42 (follow-up after 28 days dosing), 2x = 80 mg/day oral): 3
CGI-I Means ([2]; Day 42 (follow-up after 28 days dosing), 3x = 120 mg/day oral): 3
CGI-I Means ([2]; Day 42 (follow-up after 28 days dosing), all three dose groups pooled (n=18)): 3.2778
CGI-I Means ([2]; Day 49 (follow-up after 28 days dosing), 1x = 40 mg/day oral): 3.5
CGI-I Means ([2]; Day 49 (follow-up after 28 days dosing), 2x = 80 mg/day oral): 3.3333
CGI-I Means ([2]; Day 49 (follow-up after 28 days dosing), 3x = 120 mg/day oral): 2.8333
CGI-I Means ([2]; Day 49 (follow-up after 28 days dosing), all three dose groups pooled (n=18)): 3.2222
CGI-I Means [2, 8]: 3
CGI-I Means [2, 9]: 3
CGI-I Means [2, 10]: 2.1667
CGI-I Means [2, 11]: 2.7222
CGI-I Means ([2]; Day 70 (follow-up after 28 days dosing), 1x = 40 mg/day oral): 3.6667
CGI-I Means ([2]; Day 70 (follow-up after 28 days dosing), 2x = 80 mg/day oral): 3.5
CGI-I Means ([2]; Day 70 (follow-up after 28 days dosing), 3x = 120 mg/day oral): 3.3333
CGI-I Means ([2]; Day 70 (follow-up after 28 days dosing), all three dose groups pooled (n=18)): 3.5
CGI-I Means [2, 12]: 3.3333
CGI-I Means [2, 13]: 2.6667
CGI-I Means [2, 14]: 2
CGI-I Means [2, 15]: 2.7059
qEEG high frequency α (HFα), amplitude and coherence measures [3]: increased HFα
